Experimental data reported in patent US4338122A, “Biocidal 2-aryl-1,3-cyclopentanedione compounds and alkali metal and ammonium salts thereof” (Union Carbide Corporation, priority 1980, dated 1982).

Tests used:
[1] = system: egg of the two-spotted mite (Tetranychus urticae (Koch)); test: Mite Ovicide Test (egg); format: in vivo; design: key to Miticidal, Egg (control rating): A: Excellent Control; B: Partial Control; No Control; conditions: Table I; unhatched/hatched eggs four days after spraying
Description: (§1) Suspensions of the test compounds were prepared by dissolving one gram of compound in 50 milliliters of acetone in which had been dissolved 0.1 gram (10 percent of the weight of compound) of an alkylphenoxyethoxyethanol surfactant, as an emulsifying or dispersing agent. The resulting solution was mixed into 160 milliliters of water to give roughly 200 milliliters of a suspension containing the compound in finely divided form. The thus prepared stock suspension contained 0.5 percent by weight of compound. The test concentrations employed in the tests described herein below were obtained by diluting the stock suspension with water. The test procedures were as follows:
The test organism was the egg of the two-spotted mite (Tetranychus urticae (Koch)), as obtained from adults reared on Tendergreen bean plants under controlled conditions of 80°±5° F. and 50±5 percent relative humidity. Heavily infested leaves from a stock culture were placed on the primary leaves of two bean plants six to eight inches in height growing in a two-and-a-half inch clay pot. Females were allowed to oviposit for a period of 48 hours and then the leaves of the infested plants were dipped in a solution containing 800 parts of tetraethyl pyrophosphate per million parts of water in order to destroy the reproductory forms and thus prevent further egg laying. […] The plants were allowed to dry thoroughly. The test compounds were formulated by diluting the stock suspension with water to give a suspension containing varying amounts of test compound per million parts of final formulation. The potted plants (one pot per compound) were placed on a revolving turntable and sprayed with 100-110 milliliters of test compound formulation by use of a DeVilbis spray gun set at 40 spig. air pressure. This application which lasted 30 seconds, was sufficient to wet the plants to run-off. As a control, 100-110 milliliters of a water solution containing acetone and emulsifier in the same concentrations as the test compound formulation, but containing no test compound, were also sprayed on plants infested with eggs. The sprayed plants were held at 80°±5° F. and 50±5 percent relative humidity for four days, after which a microscopic examination was made of unhatched (dead) and hatched (living) eggs.
(§2) In these tests the pesticidal activity of the compounds against mites and mite eggs were rated as follows:
(§3) Tests were conducted in accordance with the procedures given at pages 32 to 37 supra. The results are expressed in the same manner as used in Table I, except with respect to miticidal activity. For mite adult and mite egg comparison purposes, results are given in parts per million (ppm) required for a 50 percent kill of mites or eggs, respectively.

[2] = system: two-spotted mite (Tetranychus urticae (Koch)), adults and nymphal stages; test: Mite Foliage Spray Test (adult miticidal); format: in vivo; design: key to Miticidal, Adult (control rating): A: Excellent Control; B: Partial Control; No Control; conditions: Table I; mortality count four days after spraying
Description: as §1
Adults and nymphal stages of the two-spotted mite (Tetranychus urticae (Koch)), reared on Tendergreen bean plants at 80°±5° F. and 50±5 percent relative humidity, were the test organisms. Infested leaves from a stock culture were placed on the primary leaves of two bean plants six to eight inches in height, growing in a two-and-a-half inch clay pot. 150-200 Mites, a sufficient number for testing, transferred from the excised leaves to the fresh plants in a period of twenty-four hours. Following the twenty-four hour transfer period, the excised leaves were removed from the infested plants. The test compounds were formulated by diluting the stock suspension with water to provide suspensions containing the desired amount of test compound per million parts of final formulation. The potted plants (one pot per compound) were placed on a revolving turntable and sprayed with 100-110 milliliters of test compound formulation by use of a DeVilbis spray gun set at 40 psi. air pressure. This application, which lasted 30 seconds, was sufficient to wet the plants to run-off. As a control, 100-110 milliliters of a water solution containing acetone and emulsifier in the same concentrations as the test compound formulation, but containing no test compound, were also sprayed on infested plants. The sprayed plants were held at 80°±5° F. and 50±5 percent relative humidity for four days, after which, a mortality count of motile forms was made on the leaves of the test plants. Any individual which was capable of locomotion upon prodding was considered living.
as §2, §3

For `O=C1C(c2ccc(Cl)cc2Cl)C(=O)C2CC=CCC12` (centres unmarked) [Cl Cl H (CH2 CHCHCH2), 8-(2',4'-dichlorophenyl)bicyclo[4.3.0]non-3-en-7,9-dione], the “Miticidal, Egg (control rating)” value [1] was “A” and the “Miticidal, Adult (control rating)” value [2] was “A”.
